Test results reported in patent US9187507B2 (Institute of Pharmacology and Toxicology Academy of …, priority 2009, dated 2015).
Where two headings read alike, the source gives them in different places.

Key:
[1] = human body, after MCC-478; cited from earlier work
[2] = Cytotoxicity by MTT method; type: cell-based; settings: human; Hep G2 cells; MTT on the 3rd day of adding drugs; absorption at 540 nm
Procedure: The cytotoxicity of the desired compounds were measured by MTT method: Hep G2 cells were cultured in a DMEM culture medium containing 10% bovine calf serum, incubated in a 5% CO2 incubator, then the cells were inoculated in 96-well plate, cell count 5×10^4, continuously cultured for 3 days, added with new culture media with different drug concentrations, in which 3 parallel wells were set; on the 3rd day of adding drugs, MTT was added to 7.5 mg/ml, the culture was kept for further 2 h, the supernatant was discarded, isopropanol containing 10% […] was added, 120 μl/well, then added 0.4 μl/well again, enzyme-linked meter was used to measure the absorption at 540 nm, calculate 50% inhibition concentration, i.e., CC50 value.

HBV DNA = assay: Test of in vitro activity against HBV: inhibition of HBV DNA in Hep G 2.2.15 cells by quantitative real-time fluorescent PCR; type: cell-based; settings: Hepatitis B virus, HepG2.2.15
Procedure: By an in vitro test method of using Hep G 2.2.15 cells, the inhibition effects and cytotoxicity of the desired compounds to HBV DNA were measured.
By using quantitative and real-time fluorescent PCR method, the inhibition effects of the desired compounds to HBV DNA were measured: Hep G 2.2.15 cells were cultured in a DMEM culture medium containing 10% bovine calf serum, incubated in a 5% CO2 incubator, then the cells were inoculated in 96-well plate, cell count 3×10^4, continuously cultured, when the cell density reached about 80%, the used culture medium was discarded, and new culture media with different drug concentrations were added, in which 3 parallel wells were set; the culture media were exchanged every three days. On the 10th day of using drug, 100 μl of supernatant was taken and measured to determine HBV DNA content by quantitative PCR method, calculate 50% inhibition concentration, i.e., IC50 value.

HBV = settings: anti-HBV, cited from earlier work
[3] = system: HBV strains with resistance to lamivudine; settings: cited from earlier work
[4] = system: other retro viruses such as HIV and HSV; settings: cited from earlier work
hepatitis B virus = settings: clinical; cited from earlier work

Compound | CC50 at 3 days [2] [mM] | IC50 (HBV DNA) [nM] | other results
COc1ccc(Sc2nc(N)nc3c2ncn3CCOCP(=O)(O)O)cc1 [Compound 602076, 2-amino-6-(4-methoxyphenylthio)-9-(2-phosphonomethoxyethyl)-purine] |  |  | concentration of the free acid 602076 in blood relative to that of the monoester 602074 [1]: 1/10
COc1ccc(Sc2nc(N)nc3c2ncn3CCOCP(=O)(OCOC(=O)C(C)C)OCOC(=O)C(C)C)cc1 [Compound I2] | > 1 | 20 | 
COc1ccc(Sc2nc(N)nc3c2ncn3CCOCP(=O)(OCOC(=O)C(C)(C)C)OCOC(=O)C(C)(C)C)cc1 [Compound I3] | > 1 | 15 | 
COc1ccc(Sc2nc(N)nc3c2ncn3CCOCP(=O)(OCOC(=O)C2CCCCC2)OCOC(=O)C2CCCCC2)cc1 [Compound I4] | > 1 | 12 | 
COc1ccc(Sc2nc(N)nc3c2ncn3C[C@@H](C)OCP(=O)(OCOC(=O)C(C)(C)C)OCOC(=O)C(C)(C)C)cc1 [Compound I5] | > 1 | 6 | 
COc1ccc(Sc2nc(N)nc3c2ncn3CCOCP(=O)(OCOC(=O)OC(C)C)OCOC(=O)OC(C)C)cc1 [Compound I8] | > 1 | 5 | 
COc1ccc(Sc2nc(N)nc3c2ncn3CCOCP(=O)(OCOC(=O)OCC(C)C)OCOC(=O)OCC(C)C)cc1 [Compound I9] | > 1 | 21 | 
COc1ccc(Sc2nc(N)nc3c2ncn3CCOCP(=O)(OCOC(=O)OC2CCCCC2)OCOC(=O)OC2CCCCC2)cc1 [Compound I12] | > 1 | 11 | 
COc1ccc(Sc2nc(N)nc3c2ncn3C[C@@H](C)OCP(=O)(OCOC(=O)OC(C)C)OCOC(=O)OC(C)C)cc1 [Compound I13] | > 1 | 54 | 
COc1ccc(Sc2nc(N)nc3c2ncn3CCOCP(=O)(OCC(F)(F)F)OCC(F)(F)F)cc1 [MCC-478] | > 1 |  | in vitro activity, times that of adefovir (HBV; relative to adefovir): 10-20 times; in vitro activity, times that of lamivudine (HBV; relative to lamivudine): 20-80 times; IC50 (HBV DNA; Hep G 2.2.15 cells, HBV DNA content in supernatant by quantitative PCR on the 10th day of using drug, read-out: IC50): 16 nM; inhibition effects on HBV strains with resistance to lamivudine [3]: has inhibition effects; activity against other retro viruses such as HIV and HSV [4]: no activity
interferon |  |  | effective rate of treatment (hepatitis B virus): 30-50%
